# According to patent publication US8378070B2, “Peptides for the regulation of neurotransmitter sequestration and release” (Ramot at Tel-Aviv University Ltd., priority 2007, dated 2013):
# B1: DJ-1: wild type DJ-1 overexpressed by stable transfection with pIRES2-acGFP1 plasmid; GenBank AB073864 (protein, listed as Homo sapiens)
# chain: MASKRALVILAKGAEEMETVIPVDVMRRAGIKVTVAGLAGKDPVQCSRDVVICPDASLEDAKKEGPYDVVVLPGGNLGAQNLSESAAVKEILKEQENRKGLIAAICAGPTALLAHEIGCGSKVTTHPLAKDKMMNGGHYTYSENRVEKDGLILTSRGPGTSFEFALAIVEALNGKEVAAQVKAPLVLKD
# Columns and labels:
# DJ-1 mRNA = assay: Real time quantitative PCR of DJ-1 mRNA; format: cell-based, human
# Protocol: Cellular transfection and treatment: SH-SY5Y human neuroblastoma cells, obtained from the ATCC (Rockville, USA), were stably transfected with pIRES2-acGFP1 plasmid (BD biosciences, Clontech) containing wild type DJ-1. […] As controls, naïve neuroblastoma cells were used as well as cells stably transfected with the same vectors. Transfections were performed using the lipofectamine 2000 reagent (Invitrogen). Stable transfections were achieved by geneticin treatment and were verified by measuring DJ-1 mRNA and protein levels using real-time PCR and Western blotting. […] RNA isolation and Real time quantitative PCR: Total RNA was isolated from cultured neuroblastoma cells using a commercial reagent TriReagentTM (Sigma). The amount and quality of RNA was determined spectrophotometrically using the ND-1000 spectrophotometer (NanoDrop). First-strand cDNA synthesis was carried out from […] of the total RNA using random primer (Invitrogen) and RT-superscript II (Invitrogen) reverse transcriptase. Real-time quantitative reverse transcription polymerase chain reaction (PCR) of the desired genes was performed in an ABI Prism 7700 sequence detection system (Applied biosystems) using Sybr green PCR master mix (Applied biosystems) and the following primers: GAPDH (used as 'housekeeping' gene) sense: […] NO: 7), GAPDH antisense: […] NO: 8); DJ-1 sense: […] ID NO: 9) DJ-1 antisense: […] ID NO:10) VMAT2 sense: […] ID NO: 11) VMAT2 antisense: […] NO: 12). Real time quantitative PCR (qPCR) was performed using AbsoluteTM QPCR SYBR® Green ROX Mix, in triplicates. Quantitative calculations of the gene of interest versus GAPDH were done using the ddCT method.
# DJ-1 protein = assay: Western blotting of DJ-1 protein in neuroblastoma cells; format: cell-based, human
# Protocol: Cellular transfection and treatment: SH-SY5Y human neuroblastoma cells, obtained from the ATCC (Rockville, USA), were stably transfected with pIRES2-acGFP1 plasmid (BD biosciences, Clontech) containing wild type DJ-1. […] As controls, naïve neuroblastoma cells were used as well as cells stably transfected with the same vectors. Transfections were performed using the lipofectamine 2000 reagent (Invitrogen). Stable transfections were achieved by geneticin treatment and were verified by measuring DJ-1 mRNA and protein levels using real-time PCR and Western blotting. […] 8, 1987-1995 (2006)].
# [1] = system: SH-SY5Y human neuroblastoma cells; assay: MTT cell viability assay; format: cell-based
# Protocol: (§1) Cellular transfection and treatment: SH-SY5Y human neuroblastoma cells, obtained from the ATCC (Rockville, USA), were stably transfected with pIRES2-acGFP1 plasmid (BD biosciences, Clontech) containing wild type DJ-1. Decreased expression of DJ-1 was achieved by stable transfection with pSilencer2.1-U6 plasmid (Ambion) containing siRNA for DJ-1. As controls, naïve neuroblastoma cells were used as well as cells stably transfected with the same vectors. Transfections were performed using the lipofectamine 2000 reagent (Invitrogen). Stable transfections were achieved by geneticin treatment and were verified by measuring DJ-1 mRNA and protein levels using real-time PCR and Western blotting.
# Cell viability: Cell viability was determined by the MTT (3-(4,5-dimethylthiazole-2-yl)-2,5-diphenyltetrazolium bromide, Sigma) reduction assay. Viability after exposure to increasing dopamine levels was analyzed by adding MIT solution to each well followed by incubation at 37° C. for 3 hours. Absorbance was determined at 564 nm in a microplate reader. Cell viability was evaluated in triplicate for each treatment. All experiments were repeated at least 3 times.
# [2] = system: SH-SY5Y human neuroblastoma cells; assay: Intracellular reactive oxygen species (DCF assay); format: cell-based
# Protocol: as §1
# Measurement of intracellular reactive oxygen species (ROS): The generation of ROS, after exposure to increasing dopamine concentrations, was measured using H2DCFDA (Sigma), which is incorporated into the cells and cleaved into fluorescent DCF in the presence of ROS. 10 μM H2DCFDA was added to the cell suspension, and the cells were incubated in the dark at 37° C. for 10 minutes. DCF fluorescence was measured by FLUOstar spectrofluorometer microplate reader at 520 nm. The generation of ROS was quantitatively assayed by the increase in DCF fluorescence and expressed as percentage of control. Each experiment was repeated at least 3 times in triplicates.
# VMAT2 mRNA = assay: Real time quantitative PCR of VMAT2 mRNA; format: cell-based, human
# Protocol: Cellular transfection and treatment: SH-SY5Y human neuroblastoma cells, obtained from the ATCC (Rockville, USA), were stably transfected with pIRES2-acGFP1 plasmid (BD biosciences, Clontech) containing wild type DJ-1. […] As controls, naïve neuroblastoma cells were used as well as cells stably transfected with the same vectors. Transfections were performed using the lipofectamine 2000 reagent (Invitrogen). Stable transfections were achieved by geneticin treatment and were verified by measuring DJ-1 mRNA and protein levels using real-time PCR and Western blotting. […] RNA isolation and Real time quantitative PCR: Total RNA was isolated from cultured neuroblastoma cells using a commercial reagent TriReagentTM (Sigma). The amount and quality of RNA was determined spectrophotometrically using the ND-1000 spectrophotometer (NanoDrop). […] Real-time quantitative reverse transcription polymerase chain reaction (PCR) of the desired genes was performed in an ABI Prism 7700 sequence detection system (Applied biosystems) using Sybr green PCR master mix (Applied biosystems) and the following primers: GAPDH (used as 'housekeeping' gene) sense: […] […] Real time quantitative PCR (qPCR) was performed using AbsoluteTM QPCR SYBR® Green ROX Mix, in triplicates. Quantitative calculations of the gene of interest versus GAPDH were done using the ddCT method.
# ERK 1,2 = system: ERK 1,2
# Protocol: Cells were treated with dopamine (0-500 uM; Sigma. Israel), N-acetylcysteine (NAC 5 mM; Sigma), and PD-98059 (30 uM; Calbiochem, Rosh Haayin, Israel).
# Protein extraction and Western blotting: Protein extraction and Western blotting were done as previously described [Lev, N., et al Antioxid. redox signal. 8, 1987-1995 (2006)]. The membranes were probed with rabbit anti-DJ 1 antibody (1:1000; Chemicon Laboratories), mouse anti-VMAT2 (1:100; Chemicon Laboratories), and rabbit anti emerin (1:5000; Santa Cruz), followed by horseradish peroxidase conjugated secondary antibody (1:10000; Sigma) and developed with the Super Signal West Pico Chemiluminescent substrate (Pierce Biotechnology). Densitometry of the specific protein bands was preformed by VersaDoc® imaging system and Quantity One® software (BioRad).
# Immunocytochemistry: Cells were fixed with 4% paraformaldehyde and permeabilized with 0.5% Triton X-100 and were then incubated in a blocking solution followed by overnight incubation with rabbit anti-VMAT2 (1:100; Chemicon Laboratories), at 4° C. followed by incubation with alexa-568 conjugated goat anti rabbit antibodies (1:1000; Molecular probes). Nuclei were counterstained by 4′,6-Diamidino-2-phenylindole dihydrochloride (DAPI, Sigma).
# VMAT2 promotor = conditions: after exposure to 50 μM dopamine
# Protocol: Chromatin immunoprecipitation: ChIP assays using cultured neuroblastoma cells were performed following Upstate instructions. After protein-DNA cross-linking by paraformaldehyde, cells were harvested and the pellets were resuspended in lysis-buffer and sonicated on ice (5 sets of 15-s pulse at 40% maximal power). After pre-clearing with Protein G/A-agarose, aliquots were incubated with DJ-1 antibodies or non-specific antibodies (as control) overnight at 4° C. with rotation. Immunopercipitated DNA was used as templates for the following primers, designed for the human VMAT promotor: sense: [sequence]
# VMAT2 = biological target: T1, VMAT2 (Homo sapiens, UniProt Q05940); assay: KCl-induced [3H]dopamine release; format: cell-based
# T1 construct: endogenous in cells; host or cells: SH-SY5Y human neuroblastoma cells (naive, stably transfected with wild type DJ-1, or with siRNA for DJ-1)
# Protocol: KCl-induced dopamine release: Cells were plated on poly-D-lysin-coated 24-well plates. Cells were rinsed with assay buffer (containing Tris 4 mM, HEPES 6.25 mM, NaCl 120 mM, KCl 5 mM, CaCl2 1.2 mM, MgSO4 1.2 mM, D-glucose 5.6 mM and ascorbic acid 0.5 mM) and were then incubated with 0.5 uCi/ml [3H]Dopamine (Amersham Biosciences) for 20 minutes at 37° C. To measure stimulation-induced [3H]Dopamine release, [3H]Dopamine-loaded cells were rinsed extensively with ice cold buffer, and were treated with 60 mM KCl for 20 minutes at 37° C. and extracellular [3H]Dopamine was measured. Inhibition of VMAT2 was done using dihydrotetrabenazine (0-1 mM). All samples were analyzed with Packard liquid scintillation counter. Experiments were conducted in triplicates and repeated three times.
# striatum = assay: In vivo 6-hydroxydopamine hemiparkinsonian mouse model, striatal Western blotting; conditions: mice
# Protocol: In vivo 6-hydroxydopamine hemiparkinsonian mouse model: Eight-week-old male C57BL/6 mice (Harlan, Israel; 22-28 g) were used for 6-hydroxydopamine hemiparkinsonian mouse model experiments. All animals were housed in standard conditions, in a constant temperature (22±1° C.), relative humidity (30%), 12-h light: 12-h dark cycle, with free access to food and water. Surgical procedures were performed under the supervision of the Animal Care Committee at the Rabin Medical Center and at Tel Aviv University, Tel Aviv, Israel. Mice received a unilateral, right intrastriatal injection of […] 6-hydroxydopamine hydrobromide (Sigma, Israel) using a stereotaxic surgical procedure. Injections were targeted to the central striatum using the following coordinates: 0.5 mm anterior to bregma, 2.0 mm lateral to bregma, and 2.5 mm deep to the skull surface. Treatments were administered in a volume of 2.0 μL at a rate of 0.5 μL/min. 24 hours after 6-hydroxydopamine lesioning, striatal tissue was collected from both the injected and intact sides for DJ-1, VMAT2 and TH analysis. For analysis of acute 6-hydroxydopamine effects on phosphokinases striatal tissue was excised after 30 and 45 minutes of 6-hydroxydopamine injection.
# [3] = system: tyrosine hydroxylase (TH); assay: Tyrosine hydroxylase mRNA (real time PCR) and ChIP of TH promotor; format: cell-based, human; conditions: DJ-1 overexpressing cells, GAPDH reference
# Protocol: RNA isolation and Real time quantitative PCR: Total RNA was isolated from cultured neuroblastoma cells using a commercial reagent TriReagent™ (Sigma). The amount and quality of RNA was determined spectrophotometrically using the ND-1000 spectrophotometer (NanoDrop). First-strand cDNA synthesis was carried out from […] of the total RNA using random primer (Invitrogen) and RT-superscript II (Invitrogen) reverse transcriptase. Real-time quantitative reverse transcription polymerase chain reaction (PCR) of the desired genes was performed in an ABI Prism 7700 sequence detection system (Applied biosystems) using Sybr green PCR master mix (Applied biosystems) and the following primers: GAPDH (used as ‘housekeeping’ gene) sense: CGACAGTCAGCCGCATCTT (SEQ ID NO: 7), GAPDH antisense: […] (SEQ ID NO: 8); DJ-1 sense: […], (SEQ ID NO: 9) DJ-1 antisense: […], (SEQ ID NO:10) VMAT2 sense: […], (SEQ ID NO: 11) VMAT2 antisense: […] (SEQ ID NO: 12). Real time quantitative PCR (qPCR) was performed using Absolute™ QPCR SYBR® Green ROX Mix, in triplicates. Quantitative calculations of the gene of interest versus GAPDH were done using the ddCT method.
# [4] = PD98059 30 uM, inhibition of ERK1,2 phosphorylation
# T1 sequence (Q05940 whole entry): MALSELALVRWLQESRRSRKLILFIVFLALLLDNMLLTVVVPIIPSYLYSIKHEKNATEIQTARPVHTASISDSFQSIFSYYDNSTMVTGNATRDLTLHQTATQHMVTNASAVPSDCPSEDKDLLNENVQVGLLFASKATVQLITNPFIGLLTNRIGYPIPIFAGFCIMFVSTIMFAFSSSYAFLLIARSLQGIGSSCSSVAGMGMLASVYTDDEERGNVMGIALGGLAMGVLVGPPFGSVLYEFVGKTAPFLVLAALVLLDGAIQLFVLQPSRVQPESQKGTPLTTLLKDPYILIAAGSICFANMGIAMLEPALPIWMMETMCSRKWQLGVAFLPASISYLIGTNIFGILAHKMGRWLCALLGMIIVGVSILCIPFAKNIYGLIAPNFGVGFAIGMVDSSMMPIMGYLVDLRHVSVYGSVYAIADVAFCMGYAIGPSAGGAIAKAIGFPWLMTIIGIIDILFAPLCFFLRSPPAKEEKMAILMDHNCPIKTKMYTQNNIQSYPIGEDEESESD
molecule,measurement,setting,value
COc1cccc(-c2cc(=O)c3ccccc3o2)c1N [PD98059],Effect on dopamine-induced DJ-1 mRNA upregulation,DJ-1 mRNA; [4],inhibited DJ-1 mRNA upregulation
same,Effect on dopamine-induced DJ-1 protein upregulation (Western blot),DJ-1 protein; [4],abolished DJ-1 protein upregulation
NCCc1ccc(O)c(O)c1 [dopamine],Cell viability (MTT) after dopamine exposure,"[1]; dopamine 0-500 uM, 24 hours, neuroblastoma cells",dose dependent cell death
same,Intracellular ROS (DCF assay) after dopamine exposure,"[2]; increasing dopamine concentrations, neuroblastoma cells",increased intracellular ROS
same,Increase in DJ-1 mRNA,"DJ-1 mRNA; 50 μM dopamine, within 1 hour, naïve neuroblastoma cells",2.5 fold
same,VMAT2 mRNA elevation of basal level,"VMAT2 mRNA; 50 μM dopamine, after 7 hours, naïve neuroblastoma cells",60 fold
same,DJ-1 protein after dopamine exposure (Western blot),DJ-1 protein; naïve neuroblastoma cells,Increased DJ-1 protein
same,"Time to phosphorylation of ERK 1,2 after dopamine exposure","ERK 1,2; naive neuroblastoma, Western blotting and immunocytochemistry",20 to 60 min
same,Phosphorylation of ERK 1 and 2 after dopamine exposure,"ERK 1,2; naïve neuroblastoma cells",rapid phosphorylation
same,VMAT2 promotor precipitated by anti-DJ-1 antibodies (ChIP),VMAT2 promotor,higher amounts of VMAT2 promotor were precipitated
"CC(=O)N[C@@H](CS)C(=O)O [NAC, N-acetylcysteine]",Effect on dopamine-induced DJ-1 mRNA upregulation,"DJ-1 mRNA; pre-treatment with NAC 5 mM, naïve neuroblastoma",abolished DJ-1 mRNA upregulation
COc1cc2c(cc1OC)[C@H]1C[C@@H](O)[C@H](CC(C)C)CN1CC2 [dihydrotetrabenazine],KCl induced dopamine release,"VMAT2; dihydrotetrabenazine 0-1 mM, 60 mM KCl 20 minutes",abolished
"Br.NCCc1cc(O)c(O)cc1O [6-hydroxydopamine, 6-hydroxydopamine hydrobromide]","ERK1,2 phosphorylation in striatum","striatum; acute exposure, intrastriatal injection, 30 and 45 minutes","increased phosphorylation of ERK1, 2"
same,DJ-1 and VMAT-2 protein expression in lesioned vs unlesioned striatum,"striatum; unilateral intrastriatal injection, 24 hours",increased expression of DJ-1 and of VMAT-2 proteins
B1,Protection against rotenone and 6-hydroxydopamine,[1]; DJ-1 overexpressing neuroblastoma cells,protects against dopaminergic toxins
same,Vulnerability to dopamine toxicity (MTT viability),"[1]; dopamine 0-500 uM, 24 hours, transfected SH-SY5Y cells",conferred resistance to dopamine
same,Dopamine-induced intracellular ROS (DCF assay),[2]; transfected SH-SY5Y cells vs naïve neuroblastoma,decreased intracellular ROS
same,DJ-1 mRNA and protein levels in overexpressing cells,DJ-1 mRNA; stable transfection with wild type DJ-1,over 3 fold
same,VMAT2 expression level compared to control (mRNA),VMAT2 mRNA; stably transfected SH-SY5Y cells,over 500 fold
same,KCl-induced dopamine release from synaptic vesicles compared to naïve neuroblastoma cells,VMAT2; transfected SH-SY5Y cells,released more dopamine
same,TH mRNA levels (real time PCR),[3],upregulation of TH mRNA
